The values below are quoted from earlier work in PMC11089247 (Frontiers in Pharmacology, 2024).

Where a name gives a salt, the structure may show the parent alone.

For one data set, the system named is CYP2C9. Details: method as in Ji et al., 2015. Particulars: substrate fluoxetine, ref Ji et al., 2015.
The test system of the next data set is CYP2C19. As to conditions: substrate fluoxetine, ref Fang et al., 2017.

As for `CNCCC(Oc1ccc(C(F)(F)F)cc1)c1ccccc1` (centres unmarked) [fluoxetine, Fluoxetine hydrochloride], the Km in the data set on CYP2C9 was 31.7 µM; in the data set with CYP2C19, 97.6 µM.

Broadly, the Km is the substrate concentration at which the rate is half of its maximum.
